Biological target: T1, minerocorticoid receptor (MR) (Homo sapiens, UniProt P08235)
T1 construct: made in house; host or cells: SF21 insect cells (baculovirus)
T1 sequence (P08235 1-984): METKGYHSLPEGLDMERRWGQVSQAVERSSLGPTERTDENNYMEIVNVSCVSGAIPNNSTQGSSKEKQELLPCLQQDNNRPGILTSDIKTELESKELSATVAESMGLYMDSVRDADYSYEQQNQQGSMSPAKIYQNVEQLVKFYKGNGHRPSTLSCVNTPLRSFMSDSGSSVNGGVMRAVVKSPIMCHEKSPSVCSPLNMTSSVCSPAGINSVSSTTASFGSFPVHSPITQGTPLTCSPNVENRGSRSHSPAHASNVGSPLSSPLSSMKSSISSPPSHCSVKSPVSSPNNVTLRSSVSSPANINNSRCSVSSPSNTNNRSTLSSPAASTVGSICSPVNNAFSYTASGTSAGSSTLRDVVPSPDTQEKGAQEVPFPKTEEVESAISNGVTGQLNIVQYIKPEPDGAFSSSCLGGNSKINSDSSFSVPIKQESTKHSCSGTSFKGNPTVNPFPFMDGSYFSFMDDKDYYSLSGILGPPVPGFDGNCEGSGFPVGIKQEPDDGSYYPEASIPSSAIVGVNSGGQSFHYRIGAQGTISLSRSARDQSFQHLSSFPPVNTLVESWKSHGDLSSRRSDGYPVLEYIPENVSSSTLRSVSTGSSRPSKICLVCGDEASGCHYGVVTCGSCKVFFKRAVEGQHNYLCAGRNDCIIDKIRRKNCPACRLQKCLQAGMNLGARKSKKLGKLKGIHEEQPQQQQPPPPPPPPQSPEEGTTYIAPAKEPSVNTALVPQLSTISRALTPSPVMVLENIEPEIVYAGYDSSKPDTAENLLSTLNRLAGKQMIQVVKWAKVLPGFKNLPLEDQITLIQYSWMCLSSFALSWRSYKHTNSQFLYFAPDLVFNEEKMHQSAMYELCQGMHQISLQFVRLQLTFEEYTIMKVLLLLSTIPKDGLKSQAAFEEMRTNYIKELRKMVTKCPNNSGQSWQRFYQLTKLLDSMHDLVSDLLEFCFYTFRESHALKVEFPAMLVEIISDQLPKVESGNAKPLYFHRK
Assay: soluble minerocorticoid receptor (MR) binding assay, [3H]-aldosterone competition
Conditions: 3-4 nM [3H]-aldosterone, 4 °C for 18 hours; Cheng-Prusoff
Excerpt: For soluble minerocorticoid receptor (MR) binding assays, [^3H]-aldosterone (75-85 Ci/mmol) was purchased from New England Nuclear (Boston, MA), aldosterone was purchased from Sigma Chemical Co. (St. Louis, MO), CHAPS and DTT were purchased from Boehringer Mannheim GmbH (W. Germany) and all other reagents were purchased from Sigma.
The methods concerning growth, purification, and assays of recombinant viruses followed the protocol outlined by Summers, M.D., Smith, G.E., A Manual of Methods for Baculovirus Vectors and Insect Cell Culture Procedures, Tex. Agric. Exp. Stn. [Bull], 1987, No. 155, hereby incorporated by reference. The recombinant plasmids were cotransfected into SF21 cells with wild type AcNPV DNA, and the recombinant viruses were plaque purified.
A receptor extract was prepared from the baculovirus system, and aliquots were stored at -80 °C until used. Typical protein concentrations for these extracts were between 10 and 20 mg/ml. Stock solutions of aldosterone or other competing compounds were prepared as either 5 mM ethanol or DMSO stock solutions and serial dilutions were carried out in 1:1 DMSO-ethanol. The assay buffer consisted of the following: 25 mM sodium phosphate, 10 mM potassium fluoride, 20 mM sodium molybdate, 10% glycerol, 2 mM DTT and 0.25 mM CHAPS, pH=7.3 at room temperature.
Receptor assays were performed with a final volume of 250 µL containing from 50-75 µg of extract protein, plus 3-4 nM [^3H]-aldosterone and varying concentrations of competing ligand (0 to 10,000 nM). Assays were set up using a 96-well minitube system and incubations were carried out at 4 °C for 18 hours. Equilibrium under these conditions of buffer and temperature was achieved by 6-8 hours. Nonspecific binding was defined as that binding remaining in the presence of 1000 nM unlabeled aldosterone. At the end of the incubation period, 200 µL of 6.25% hydroxyapatite was added in wash buffer (binding buffer in the absence of DTT and CHAPS). Specific ligand binding to receptor was determined by a hydroxyapatite-binding assay according to the protocol outlined by Wecksler, W.R., Norman, A.W., An Hydroxylapatite Batch Assay for the Quantitation of 1α, 25-Dihydroxyvitamin D3-Receptor Complexes, Anal. Biochem. 1979, 92, 314-323, hereby incorporated by reference. Hydroxyapatite absorbs the receptor-ligand complex, allowing for the separation of bound from free radiolabeled ligand. The mixture was vortexed, incubated for 10 minutes at 4 °C, centrifuged, and the supernatant was removed. The hydroxyapatite pellet was washed twice more with the wash buffer. The amount of receptor-ligand complex was determined by liquid scintillation counting of the hydroxyapatite pellet after the addition of […] EcoScint A scintillation cocktail from National Diagnostics (Atlanta, GA.).
After correcting for nonspecific binding, IC50 values were determined. […] The IC50 values were determined graphically from a log-logit plot of the data. […] Standards are included in each assay and resulting Ki values are determined by use of a modified Cheng-Prusoff equation and used to calculate Ki values for "unknown analogs" as outlined by DeBlasi, A., O'Reilly, K., Motulsky, H.J., Calculating Receptor Number from Binding Experiments Using Same Compound As Radioligand and Competitor, TIPS 1989, 10.227-229, hereby incorporated by reference.

Row | Structure (SMILES) | Ki [nM]
1 | CC(=O)OCCN(C)c1ccc(C(c2ccc(N(C)CCOC(C)=O)cc2)c2cc([N+](=O)[O-])ccc2Cl)cc1 [Example 31, 4',4" bis(N-(2-acetoxyethyl) N-methylamino)-2-chloro-5-nitrotriphenylmethane] | 3910
2 | O=[N+]([O-])c1ccc(Cl)c(C(c2ccc(NCc3ccccc3)cc2)c2ccc(NCc3ccccc3)cc2)c1 [Example 36, 4',4" bis(N-benzylamino)-2-chloro-5-nitrotriphenylmethane] | 2900
3 | CNc1ccc(C(c2ccc(NC)cc2)c2cc(Cl)ccc2Cl)cc1 [Example 27, 4',4" bis(methylamino)-2,5-dichlorotriphenylmethane] | > 10000
4 | CN(C)c1ccc(C(Sc2ccccc2)c2cc([N+](=O)[O-])ccc2Cl)cc1 (stereo not shown) [Example 54, phenyl-[(4'-dimethylaminophenyl)-(2-chloro-5-nitrophenyl)methyl]thioether] | 2900
5 | CNc1ccc(C(c2ccc(NC)cc2)c2cc([N+](=O)[O-])ccc2Cl)cc1 [Example 23, 4',4" bis(methylamino)-2-chloro-5-nitrotriphenylmethane] | > 10000
6 | CNc1ccc(C(c2ccc(N(C)C)cc2)c2cc([N+](=O)[O-])ccc2Cl)cc1 (stereo not shown) [Example 39, 4'-dimethylamino-4"-methylamino-2-chloro-5-nitrotriphenylmethane] | 2900
7 | CN(C)c1ccc(C(c2ccc(N(C)C)cc2)c2cc(Cl)ccc2Cl)cc1 [Example 24, 4',4" bis(dimethylamino)-2,5-dichlorotriphenylmethane] | 2900
8 | CN(C)c1ccc(C(c2ccc(N(C)CCO)cc2)c2cc([N+](=O)[O-])ccc2Cl)cc1 (stereo not shown) [Example 42, 4'-dimethylamino-4"-(N-methyl-N-(2-hydroxyethyl)amino)-2-chloro-5-nitrotriphenylmethane] | 2900
9 | CN(C)c1ccc(C(c2ccc(N(C)C)cc2)c2cc([N+](=O)[O-])ccc2Cl)cc1 [Example 1, 4',4" bis(dimethylamino)-2-chloro-5-nitrotriphenylmethane] | 2900
10 | CNc1ccc(C(c2ccc(N(C)CCOC(C)=O)cc2)c2cc([N+](=O)[O-])ccc2Cl)cc1 (stereo not shown) [Example 49, 4'-methylamino-4"-(N-(2-acetoxyethyl)-N-methylamino)-2-chloro-5-nitrotriphenylmethane] | 3910
11 | CN(C)c1ccc(C(Oc2ccccc2)c2cc([N+](=O)[O-])ccc2Cl)cc1 (stereo not shown) [Example 52, phenyl-[(4'-dimethylaminophenyl)-(2-chloro-5-nitrophenyl)methyl] ether] | 3110
12 | CC(=O)OCCN(C)c1ccc(C(c2ccc(N(C)C)cc2)c2cc([N+](=O)[O-])ccc2Cl)cc1 (stereo not shown) [Example 51, 4'-dimethylamino-4"-(N-methyl-N-(2-acetoxyethyl)amino)-2-chloro-5-nitrotriphenylmethane] | > 10000
13 | CN(CCO)c1ccc(C(c2ccc(N(C)CCO)cc2)c2cc([N+](=O)[O-])ccc2Cl)cc1 [Example 32, 4',4" bis(N-(2-hydroxyethyl) N-methylamino)-2-chloro-5-nitrotriphenylmethane] | 3910
